Laboratory results from patent US20070141276A1, “Novel 14 and 15 membered ring compounds” (priority 2003, published 2007).
Where a name gives a salt, the structure may show the parent alone.

Assays:
Assay in all cases: MIC, broth dilution method in microtitre
E. faecalis ATCC 29212 = type: cell-based; conditions: Enterococcus faecalis, ATCC29212
Method: (§1) Using a standard broth dilution method in microtitre, compounds were tested for antibacterial activity. The compounds in the above examples gave minimum inhibitory concentrations (MICs) less than 1 microgram per millilitre against erythromycin-sensitive and erythromycin-resistant strains of Streptococcus pneumoniae and Streptococcus pyogenes.
(§2) In addiffon, the MIC (μg/mL) of test compounds against various organisms was determined including:
(§3) S. aureus Smith ATCC 13709, S. pneumonlae SP030, S. pyogenes 3565, E. faecalis ATCC 29212, H. influenzae ATCC 49247, M. catarrhalis ATCC 23246.

S. pyogenes 3565 = type: cell-based; conditions: Streptococcus pyogenes
Method: as §1, §2, §3

[1] = test system: S. aureus Smith ATCC 13709; type: cell-based; conditions: Staphylococcus aureus, ATCC13709
Method: as §1, §2, §3

S. pneumoniae SP030 = type: cell-based; conditions: Streptococcus pneumoniae
Method: as §1, §2, §3

[2] = test system: erythromycin-resistant strains of Streptococcus pneumoniae; type: cell-based
Method: as §1

[3] = test system: erythromycin-resistant strains of Streptococcus pyogenes; type: cell-based
Method: as §1

H. influenzae ATCC 49247 = type: cell-based, Haemophilus influenzae
Method: as §1, §2, §3

[4] = test system: M. catarrhalis ATCC 23246; type: cell-based, Moraxella catarrhalis
Method: as §1, §2, §3

Row | MIC (E. faecalis ATCC 29212) [µg/mL] | MIC (S. pyogenes 3565) [µg/mL] | MIC [1] [µg/mL] | MIC (S. pneumoniae SP030) [µg/mL] | MIC [2] [µg/mL] | MIC [3] [µg/mL] | Compound | MIC (H. influenzae ATCC 49247) [µg/mL] | MIC [4] [µg/mL]
1 | ≤ 1 | ≤ 1 | ≤ 1 | ≤ 1 | ≤ 0.25 | ≤ 0.25 | CC[C@H]1OC(=O)[C@H](C)[C@@H](O[C@H]2C[C@@](C)(OC)[C@@H](OC(=O)NCCCOCCOc3ccc4c(c3)c(=O)c(C(=O)O)cn4C3CC3)[C@H](C)O2)[C@H](C)[C@@H](O[C@@H]2O[C@H](C)C[C@H](N(C)C)[C@H]2O)[C@](C)(O)C[C@@H](C)CN(C)[C@H](C)[C@@H](O)[C@]1(C)O [Example 2] |  | 
2 |  |  |  |  |  |  | 4″-O-3-[2-(3-Carboxy-7-chloro-1-cyclopropyl-4-oxo-1,4-dihydro-quinolin-6-yloxy)-ethoxy]-propylcarbamoyl}-azithromycin (A) and 4″-O-{3-[2-(3-Carboxy-1-cyclopropyl-4-oxo-1,4-dihydro-quinolin-6-yloxy)-ethoxy]-propylcarbamoyl)-azithromycin (B) [Example 1] | ≤ 2 | ≤ 2
3 | ≤ 1 | ≤ 1 | ≤ 1 | ≤ 1 |  |  | CC[C@H]1OC(=O)[C@H](C)[C@@H](O[C@H]2C[C@@](C)(OC)[C@@H](OC(=O)NCCNCCOc3ccc4c(c3)c(=O)c(C(=O)O)cn4CC)[C@H](C)O2)[C@H](C)[C@@H](O[C@@H]2O[C@H](C)CC(N(C)C)[C@H]2O)[C@](C)(OC)C[C@@H](C)C(=O)[C@H](C)[C@@H](O)[C@]1(C)O (stereo partly drawn) [Example 3, 4″-O-{2-[2-(3-Carboxy-1-ethyl-4-oxo-1,4-dihydro-quinolin-6-yloxy)-ethylamino]-ethylcarbamoyl}-6-O-methyl-erythromycin A monoformate salt] |  | 
